Data published in US12357618B2, “Rapamycin (RAPA) self-microemulsifying injection and preparation method and use thereof” (priority 2022, dated 2025).

Test: Solubility of RAPA in the drug solvent of the stock solution
Assay type: physicochemical
Details: organic solvent or mixture; drug solvent of two or more solvents (absolute ethanol and latent solvent)
From the text: In the RAPA self-microemulsifying injection of the present disclosure, the drug solvent includes absolute ethanol and a latent solvent, and the latent solvent is one or more selected from the group consisting of propylene glycol (PG), polyethylene glycol (PEG) 300, and PEG 400. The drug solvent of the present disclosure is a mixed solvent of two or more solvents in different proportions to dissolve RAPA, which can greatly improve the solubility of RAPA.

solubility: ≤ 60 mg/mL
Structure (SMILES): CO[C@H]1C[C@@H]2CC[C@@H](C)[C@@](O)(O2)C(=O)C(=O)N2CCCC[C@H]2C(=O)O[C@H]([C@H](C)C[C@@H]2CC[C@@H](O)[C@H](OC)C2)CC(=O)[C@H](C)/C=C(\C)[C@@H](O)[C@@H](OC)C(=O)[C@H](C)C[C@H](C)/C=C/C=C/C=C/1C [RAPA, rapamycin]
